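A five-concentration, 48-hour dose response in 96-well plates underlies each endpoint, interpolated linearly between surrounding concentrations. GI50: concentration for 50% inhibition of growth.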 Calls of active or inactive are those of the source. Rule as the data show it: active = GI50 up to about 1.1 µM and inactive = higher.
How the values were obtained:
Assay in all cases: NCI anticancer screen, dose series, 48 h
[1] = test system: SR
[2] = test system: HOP-62
[3] = test system: NCI-H23
[4] = test system: SN12C
[5] = test system: SF-268
[6] = test system: SK-MEL-28
[7] = test system: OVCAR-8
[8] = test system: A549
[9] = test system: SF-539
[10] = test system: U-251
[11] = test system: ACHN
[12] = test system: UACC-62
[13] = test system: HCT-116
[14] = test system: COLO 205
[15] = test system: EKVX
[16] = test system: M14
[17] = test system: NCI/ADR-RES
[18] = test system: MCF7
[19] = test system: SNB-19
[20] = test system: LOX IMVI
[21] = test system: UO-31
[22] = test system: RPMI-8226
[23] = test system: MOLT-4
[24] = test system: NCI-H226
[25] = test system: A498
[26] = test system: OVCAR-5
[27] = test system: PC-3
[28] = test system: KM12
[29] = test system: SF-295
[30] = test system: MDA-MB-231
[31] = test system: SK-OV-3
[32] = test system: IGROV-1
[33] = test system: NCI-H460
[34] = test system: CCRF-CEM
[35] = test system: UACC-257
[36] = test system: SK-MEL-2
[37] = test system: CAKI-1
[38] = test system: SK-MEL-5
[39] = test system: HL-60
[40] = test system: HOP-92
[41] = test system: TK-10
[42] = test system: DU-145
[43] = test system: K562
[44] = test system: 786-0
[45] = test system: HCC 2998
[46] = test system: SW-620
[47] = test system: Malme-3M
[48] = test system: NCI-H522
[49] = test system: MDA-N
[50] = test system: MDA-MB-435
[51] = test system: Hs-578T
[52] = test system: RXF 393
[53] = test system: T47D
[54] = test system: OVCAR-3
[55] = test system: HCT-15
[56] = test system: HT-29
[57] = test system: OVCAR-4

**Q.** What does the source list for `O=[N+]([O-])/C=C\c1c[nH]c2ccc(OCc3ccccc3)cc12`?
**A.** GI50 [1]: 2.03 µM (inactive); GI50 [2]: 12.9 µM (inactive); GI50 [3]: 3.4 µM (inactive); GI50 [4]: 2.24 µM (inactive); GI50 [5]: 4.37 µM (inactive); GI50 [6]: 3.03 µM (inactive); GI50 [7]: 4.27 µM (inactive); GI50 [8]: 4.31 µM (inactive); GI50 [9]: 10.4 µM (inactive); GI50 [10]: 5.85 µM (inactive); GI50 [11]: 2.13 µM (inactive); GI50 [12]: 2.9 µM (inactive); GI50 [13]: 1.73 µM (inactive); GI50 [14]: 3.85 µM (inactive); GI50 [15]: 13.4 µM (inactive); GI50 [16]: 2.18 µM (inactive); GI50 [17]: 19.3 µM (inactive); GI50 [18]: 6.49 µM (inactive); GI50 [19]: 4.89 µM (inactive); GI50 [20]: 1.86 µM (inactive); GI50 [21]: 3.58 µM (inactive); GI50 [22]: 2.08 µM (inactive); GI50 [23]: 3.6 µM (inactive); GI50 [24]: 2.18 µM (inactive); GI50 [25]: 10.5 µM (inactive); GI50 [26]: 11.1 µM (inactive); GI50 [27]: 7.33 µM (inactive); GI50 [28]: 2.09 µM (inactive); GI50 [29]: 10.6 µM (inactive); GI50 [30]: 3.57 µM (inactive); GI50 [31]: 17.5 µM (inactive); GI50 [32]: 4.15 µM (inactive); GI50 [33]: 4.43 µM (inactive); GI50 [34]: 4.26 µM (inactive); GI50 [35]: 1.64 µM (inactive); GI50 [36]: 11.5 µM (inactive); GI50 [37]: 20.6 µM (inactive); GI50 [38]: 5.06 µM (inactive); GI50 [39]: 2.62 µM (inactive); GI50 [40]: 3.21 µM (inactive); GI50 [41]: 10.4 µM (inactive); GI50 [42]: 7.46 µM (inactive); GI50 [43]: 2.55 µM (inactive); GI50 [44]: 1.93 µM (inactive); GI50 [45]: 1.67 µM (inactive); GI50 [46]: 2.51 µM (inactive); GI50 [47]: 11 µM (inactive); GI50 [48]: 10.2 µM (inactive); GI50 [49]: 2.23 µM (inactive); GI50 [50]: 2.16 µM (inactive); GI50 [51]: 3.57 µM (inactive); GI50 [52]: 2.58 µM (inactive); GI50 [53]: 2.64 µM (inactive); GI50 [54]: 10.4 µM (inactive)

**Q.** For `c1cc(NC2=NCCO2)c2c(c1)OCO2`, which GI50 [1] is on record?
**A.** Its GI50 is > 100 µM (inactive).

**Q.** And the GI50 [2]?
**A.** Its GI50 is > 100 µM (inactive).

**Q.** What about the GI50 [3] of the same compound?
**A.** Its GI50 is > 100 µM (inactive).

**Q.** What about the GI50 [4] of the same compound?
**A.** Its GI50 is > 100 µM (inactive).

**Q.** And the GI50 [5]?
**A.** Its GI50 is > 100 µM (inactive).

**Q.** And the GI50 [6]?
**A.** Its GI50 is > 100 µM (inactive).

**Q.** And the GI50 [7]?
**A.** The GI50 was > 100 µM (inactive).

**Q.** What about the GI50 [8] of the same compound?
**A.** Its GI50 is > 100 µM (inactive).

**Q.** And the GI50 [55]?
**A.** Its GI50 is over 100 µM.

**Q.** And the GI50 [9]?
**A.** The GI50 was > 100 µM (inactive).

**Q.** And the GI50 [10]?
**A.** Its GI50 is > 100 µM (inactive).

**Q.** And the GI50 [11]?
**A.** Its GI50 is > 100 µM (inactive).

**Q.** And the GI50 [12]?
**A.** Its GI50 is > 100 µM (inactive).

**Q.** And the GI50 [13]?
**A.** Its GI50 is > 100 µM (inactive).

**Q.** And the GI50 [14]?
**A.** Its GI50 is > 100 µM (inactive).

**Q.** And the GI50 [15]?
**A.** Its GI50 is > 100 µM (inactive).

**Q.** What about the GI50 [16] of the same compound?
**A.** The GI50 was > 100 µM (inactive).

**Q.** And the GI50 [17]?
**A.** Its GI50 is > 100 µM (inactive).

**Q.** What about the GI50 [18] of the same compound?
**A.** The GI50 was > 100 µM (inactive).

**Q.** What about the GI50 [19] of the same compound?
**A.** Its GI50 is > 100 µM (inactive).

**Q.** What about the GI50 [20] of the same compound?
**A.** Its GI50 is > 100 µM (inactive).

**Q.** And the GI50 [21]?
**A.** Its GI50 is > 100 µM (inactive).

**Q.** What about the GI50 [22] of the same compound?
**A.** The GI50 was > 100 µM (inactive).

**Q.** And the GI50 [23]?
**A.** The GI50 was > 100 µM (inactive).

**Q.** What about the GI50 [24] of the same compound?
**A.** The GI50 was > 100 µM (inactive).

**Q.** And the GI50 [25]?
**A.** The GI50 was > 100 µM (inactive).

**Q.** And the GI50 [26]?
**A.** Its GI50 is > 100 µM (inactive).

**Q.** And the GI50 [27]?
**A.** Its GI50 is > 100 µM (inactive).

**Q.** And the GI50 [28]?
**A.** Its GI50 is 80.2 µM (inactive).

**Q.** And the GI50 [29]?
**A.** The GI50 was > 100 µM (inactive).

**Q.** What about the GI50 [30] of the same compound?
**A.** The GI50 was > 100 µM (inactive).

**Q.** And the GI50 [31]?
**A.** The GI50 was > 100 µM (inactive).

**Q.** And the GI50 [32]?
**A.** Its GI50 is > 100 µM (inactive).

**Q.** What about the GI50 [33] of the same compound?
**A.** The GI50 was > 100 µM (inactive).

**Q.** And the GI50 [34]?
**A.** Its GI50 is > 100 µM (inactive).

**Q.** What about the GI50 [35] of the same compound?
**A.** The GI50 was > 100 µM (inactive).

**Q.** And the GI50 [36]?
**A.** The GI50 was > 100 µM (inactive).

**Q.** What about the GI50 [37] of the same compound?
**A.** Its GI50 is > 100 µM (inactive).

**Q.** And the GI50 [38]?
**A.** Its GI50 is > 100 µM (inactive).

**Q.** And the GI50 [39]?
**A.** Its GI50 is > 100 µM (inactive).

**Q.** What about the GI50 [40] of the same compound?
**A.** Its GI50 is > 100 µM (inactive).

**Q.** And the GI50 [42]?
**A.** The GI50 was > 100 µM (inactive).

**Q.** And the GI50 [43]?
**A.** The GI50 was > 100 µM (inactive).

**Q.** What about the GI50 [44] of the same compound?
**A.** The GI50 was > 100 µM (inactive).

**Q.** And the GI50 [56]?
**A.** The GI50 was > 100 µM (inactive).

**Q.** What about the GI50 [45] of the same compound?
**A.** The GI50 was > 100 µM (inactive).

**Q.** And the GI50 [46]?
**A.** The GI50 was > 100 µM (inactive).

**Q.** What about the GI50 [47] of the same compound?
**A.** Its GI50 is > 100 µM (inactive).

**Q.** What about the GI50 [48] of the same compound?
**A.** Its GI50 is > 100 µM (inactive).

**Q.** What about the GI50 [49] of the same compound?
**A.** Its GI50 is > 100 µM (inactive).

**Q.** And the GI50 [50]?
**A.** Its GI50 is > 100 µM (inactive).

**Q.** What about the GI50 [51] of the same compound?
**A.** The GI50 was > 100 µM (inactive).

**Q.** And the GI50 [52]?
**A.** The GI50 was > 100 µM (inactive).

**Q.** And the GI50 [53]?
**A.** The GI50 was > 100 µM (inactive).

**Q.** What about the GI50 [57] of the same compound?
**A.** The GI50 was > 100 µM (inactive).

**Q.** What about the GI50 [54] of the same compound?
**A.** Its GI50 is > 100 µM (inactive).

Source: ChEMBL document CHEMBL1201862, “PubChem BioAssay data set” (2004)
